Data reported in patent publication US12686788B2, “Coating compositions having covalently bound ultraviolet absorbers” (BASF SE, priority 2017, dated 2026).

Columns and labels:
Assay type in all cases: physicochemical
[1] = UV absorber solubility in UV curable coating composition (Example 9); details: approximate maximum concentration with no sign of crystallization; coating similar to Pourreau, RadTech Report 2004, Table 6
Protocol: Example 9. UV Absorber Solubility in UV Curable Coating Compositions. To measure this solubility, a number of structurally different UV absorbers were added to a typical UV curable coating composition similar to that as described by D. B. Pourreau “UV-Curable Acrylic Urethane Clearcoats for Automotive Applications,” RadTech Report, November/December, 2004, Table 6, p. 68. The test UV absorber was added to the UV curable coating composition at various concentrations. The resulting solution was placed into individual containers and sealed. Solubility was then evaluated based upon observed crystallization in the solvent. Observations were initiated after several hours and continued over a period of several weeks.
The solubility values given in Table 2, below, are approximate maximum concentrations where no sign of subsequent crystallization is evident. Solubilities are reported in weight percent of total UV absorber added to UV curable coating formulation. From the data, it is clear that the instant triazine UV absorbers are considerably more soluble in UV curable coating formulations compared to other, triazine UV absorbers. The use of many UV absorbers in coatings has been limited in the past by the limited solubility and compatibility of some UV absorber compounds.

[2] = Multilayered coated panels, accelerated weathering: color change (ΔE); details: after 6000 hours Xenon Arc accelerated weathering (SAE J2527); UV absorber 2.5 wt % in 2-part polyurethane clear top coat on white base coat
Protocol: (§1) Example 10. Stabilized 2-Part Solvent-borne Polyurethane Glossy Clear Top Coat. A glossy stabilized clear top coat was prepared of the formulation below. The UV absorbers were added to the formulation at 2.5 wt % relative to total resin solids.
(§2) Example 11. Stabilized 2-Part Solvent-borne Polyurethane Glossy Clear Top Coat. A glossy stabilized clear top coat was prepared of the formulation below. The UV absorber was added at 2.5 wt % relative to total resin solids, and the hindered amine light stabilizer (HALS) was added at 1.5 wt % relative to total resin solids. The HALS was a mixture of bis (1,2,2,6,6-pentamethyl-4-piperidyl) sebacate and methyl-1,2,2,6,6-pentamethyl-4-piperidyl sebacate (“HALS 1”); bis(1-octyloxy-2,2,6,6-tetramethylpiperidin-4-yl) sebacate (“HALS 2”); or 2,4-bis[(1-cyclohexyloxy-2,2,6,6-tetramethylpiperidin-4-yl)butylamino]-6-(2-hydroxyethylamino-s-triazine (“HALS 3”).
Example 12. Multilayered Coated Panel Preparation. Aluminum test panels from ACT Test Panels LLC were purchased having a white base coat (coil coat) and no clear top coat. The panels were cut to a size of about 3 inches by 6 inches. The stabilized top coats of Examples 10 and 11 were applied to the painted test panels using draw down bars to obtain clear coat thicknesses of either 2 mils or 3 mils, wherein 1 mil is equal to 0.0254 mm or 25.4 microns. The panels were allowed to air dry for 2 days followed by oven curing at 60° C. for 60 minutes. Initial CIE Lab color values, 20 degree gloss, and 60 degree gloss were measured.
Example 14. Multilayered Coated Panels, Accelerated Weathering. […]
Initial color measurements were taken using the above parameters. The L, a, and b values were calculated using the CIE system from the reflectance values. ΔE was calculated from the L, a, and b values. Subsequent measurements were taken at specified intervals. ΔL, a, and b values were the difference between the initial values and the values at each interval. ΔE was calculated as follows: [(ΔL)^2+(Δa)^2+(Δb)^2][…]=ΔE. […]

[3] = UV absorber solubility in UV curable coating composition (Example 8); details: approximate maximum concentration with no sign of crystallization; coating similar to Pourreau, RadTech Report 2004, Table 5
Protocol: Example 8. UV Absorber Solubility in UV Curable Coating Compositions. To measure this solubility, a number of structurally different UV absorbers were added to a typical UV curable coating composition similar to that as described by D. B. Pourreau “UV-Curable Acrylic Urethane Clearcoats for Automotive Applications,” RadTech Report, November/December, 2004, Table 5, p. 66. The test UV absorber was added to the UV curable coating composition at various concentrations. The resulting solution was placed into individual containers and sealed. Solubility was then evaluated based upon observed crystallization in the solvent. Observations started after several hours and then continued over a period of several weeks.
The solubility values given in Table 1, below, are approximate maximum concentrations where no sign of subsequent crystallization was evident. Solubilities are reported in weight percent of total UV absorber added to UV curable coating formulation. From the data in Table 1, it is clear that the inventive triazine UV absorbers are considerably more soluble in UV curable coating formulations than other triazine UV absorbers of the prior art. The use of many UV absorbers in coatings has been limited by solubility and compatibility of some UV absorber compounds. […]

[4] = Multilayered coated panels, accelerated weathering: 20 degree gloss retention; details: after 3536 hours Xenon Arc accelerated weathering (SAE J2527); UV absorber 2.5 wt % in 2-part polyurethane clear top coat on white base coat
Protocol: as §1, §2
Example 12. Multilayered Coated Panel Preparation. Aluminum test panels from ACT Test Panels LLC were purchased having a white base coat (coil coat) and no clear top coat. The panels were cut to a size of about 3 inches by 6 inches. […] Initial CIE Lab color values, 20 degree gloss, and 60 degree gloss were measured. […]

[5] = Percent transmission of clear coats on fused quartz plates (UV-vis); details: clear coat, 2.0 mils dry film on fused quartz; 2.5 weight percent UVA actives where present; with HALS 2
Protocol: Example 29. Percent Transmission Data of the Inventive Clear Coats—Clear coats were prepared of Instant Example 23 and were applied to fused quartz plates at a dry film thickness of 2.0 mils. The absorbance at various wavelengths was measured using a UV-vis spectrophotometer and the absorbance readings were converted to percent transmission (% T) at various wavelengths. In formulations where the UV absorber (UVA) was present, the concentration was 2.5 weight percent UVA actives relative to total resin solids

## CCCCC(CC)COc1ccc(-c2nc(-c3ccc(-c4ccccc4)cc3)nc(-c3ccc(-c4ccccc4)cc3)n2)c(O)c1 (centres unmarked) [Example 5, 2-[4,6-Bis(4-phenylphenyl)-1,3,5-triazin-2-yl]-5-(2-ethylhexoxy)phenol, reference compound]
[1]
  Solubility in UV Curable Coating: ~2.4 wt %
[2]
  Delta E: 2.79

## CC(C)CCCC(C)OC(=O)C(C)Oc1ccc(-c2nc(-c3ccc(-c4ccccc4)cc3)nc(-c3ccc(-c4ccccc4)cc3)n2)c(O)c1 (centres unmarked) [Example 4, 2-Isooctyl 2-[4-[4,6-bis(4-phenylphenyl)-1,3,5-triazin-2-yl]-3-hydroxy-phenoxy]propanoate]
[3]
  Solubility in UV Curable Coating: ~0 wt %
[4]
  20 degree gloss retention: 78.8%
[2]
  Delta E: 3.78

## CC(C)(C)CCCCCC(=O)OCC(COc1ccc(-c2nc(-c3ccc(-c4ccccc4)cc3)nc(-c3ccc(-c4ccccc4)cc3)n2)c(O)c1)OC(=O)NCCCCCCn1c(=O)n(CCCCCCN=C=O)c(=O)n(CCCCCCN=C=O)c1=O (centres unmarked) [Example 18, [2-[6-[3,5-bis(6-isocyanatohexyl)-2,4,6-trioxo-1,3,5-triazinan-1-yl]hexylcarbamoyloxy]-3-[4-[4,6-bis(4-phenylphenyl)-1,3,5-triazin-2-yl]-3-hydroxy-phenoxy]propyl] neodecanoate]
[5]
  % T at 325 nm: 0.02%
  % T at 350 nm: 0.13%
  % T at 375 nm: 31.98%

## 2-[4,6-bis(2,4-dimethylphenyl)-1,3,5-triazin-2-yl]-5-[2-hydroxy-3-(2-methylbutoxy)propoxy]phenol and regioisomer [Example 3, reference compound]
[5]
  % T at 325 nm: 0.04%
  % T at 350 nm: 0.10%
  % T at 375 nm: 36.79%

## CC(C)(C)CCCCCC(=O)OCC(COc1ccc(-c2nc(-c3ccc(-c4ccccc4)cc3)nc(-c3ccc(-c4ccccc4)cc3)n2)c(O)c1)OC(=O)NCCCCCCNC(=O)N(CCCCCCN=C=O)C(=O)NCCCCCCNC(=O)OC(COC(=O)CCCCCC(C)(C)C)COc1ccc(-c2nc(-c3ccc(-c4ccccc4)cc3)nc(-c3ccc(-c4ccccc4)cc3)n2)c(O)c1 (centres unmarked) [Example 17, [3-[4-[4,6-bis(4-phenylphenyl)-1,3,5-triazin-2-yl]-3-hydroxy-phenoxy]-2-[6-[[6-[[1-[[4-[4,6-bis(4-phenylphenyl)-1,3,5-triazin-2-yl]-3-hydroxy-phenoxy]methyl]-2-(neodecanoyl)oxy-ethoxy]carbonylamino]hexylcarbamoyl-(6-isocyanatohexyl)-carbamoyl]amino]hexylcarbamoyloxy]propyl] neodecanoate]
[5]
  % T at 325 nm: 0.02%
  % T at 350 nm: 0.09%
  % T at 375 nm: 25.29%

## [3-[4-[4,6-bis(4-phenylphenyl)-1,3,5-triazin-2-yl]-3-hydroxy-phenoxy]-2-hydroxy-propyl] neo-decanoate (“UVA-3”) and [2-[4-[4,6-bis(4-phenylphenyl)-1,3,5-triazin-2-yl]-3-hydroxy-phenoxy]-3-hydroxy-propyl] neo-decanoate (“UVA-4”) [Example 2]
[1]
  Solubility in UV Curable Coating: ~26 wt %
[3]
  Solubility in UV Curable Coating: ~6.4 wt %
[2]
  Delta E: 1.89

## CCCCCC(CC)OC(=O)N(CCCCCCN=C=O)C(=O)NCCCCCCNC(=O)OC(COC(=O)CCCCCC(C)(C)C)COc1ccc(-c2nc(-c3ccc(-c4ccccc4)cc3)nc(-c3ccc(-c4ccccc4)cc3)n2)c(O)c1 (centres unmarked) [Example 19, [3-[4-[4,6-bis(4-phenylphenyl)-1,3,5-triazin-2-yl]-3-hydroxy-phenoxy]-2-[6-[[1-ethylhexoxycarbonyl(6-isocyanatohexyl)carbamoyl]amino]hexylcarbamoyloxy]propyl] neodecanoate]
[5]
  % T at 325 nm: 0.02%
  % T at 350 nm: 0.10%
  % T at 375 nm: 27.18%

## CC(C)(C)CCCCCC(=O)OCC(COc1ccc(-c2nc(-c3ccc(-c4ccccc4)cc3)nc(-c3ccc(-c4ccccc4)cc3)n2)c(O)c1)OC(=O)NCCCCCNC(=O)N(CCCCCCN=C=O)C(=O)NCCCCCCN=C=O (centres unmarked) [Example 16, [3-[4-[4,6-bis(4-phenylphenyl)-1,3,5-triazin-2-yl]-3-hydroxy-phenoxy]-2-[5-[[6-isocyanatohexyl(6-isocyanatohexylcarbamoyl)carbamoyl]amino]pentyl-carbamoyloxy]propyl] neodecanoate]
[5]
  % T at 325 nm: 0.03%
  % T at 350 nm: 0.11%
  % T at 375 nm: 33.86%

## CCCCCCCCON1C(C)(C)CC(OC(=O)CCCCCCCCC(=O)OC2CC(C)(C)N(OCCCCCCCC)C(C)(C)C2)CC1(C)C [HALS 2, bis(1-octyloxy-2,2,6,6-tetramethylpiperidin-4-yl) sebacate, reference compound]
[5]
  % T at 325 nm: 84.39%
  % T at 350 nm: 92.31%
  % T at 375 nm: 93.38%
